Test results from PMC8000185 (International Journal of Molecular Sciences, 2021).

Columns and labels:
NHE1 = target: T1, NHE1 (Homo sapiens, UniProt P19634); experiment: Plate-based NHE1 inhibition assay (BCECF pHi recovery, 96-well plate reader); format: cell-based; conditions: MDA-MB-231 cells, plate reader
T1 construct: endogenous in cells; host or cells: MDA-MB-231
Protocol: To perform NHE1 screening with increased throughput, we adapted the conventional cuvette-based NHE1 activity assay to a simple new 96-well plate format using MDA-MB-231 cells that were compatible with common laboratory fluorescence plate readers (see Section 4 for details).
Culture media were removed and replaced with 200 µL 0.2% FBS-containing media with incubation for 3–4 h to stimulate NHE1 activity, followed by incubation for 30 min in the presence of 5 µM 2′,7′-bis(carboxyethyl)-5(6)-carboxyfluorescein-acetoxymethyl ester (BCECF-AM, cat #ab143463, Abcam, Cambridge, United Kingdom). Cells were then washed with 100 µL/well Na^+-free acid-load buffer: 10 mM NH4Cl, 1.8 mM CaCl2, 90 mM N-methyl-D-glucamine (from 1 M stock titrated to pH 7.4 with HCl), 5 mM glucose, 15 mM HEPES, 5 mM KCl, 1 mM MgCl2 (pH 7.5, adjusted with KOH), and incubated at 37 °C for a further 30 min. Acid-load buffer was removed and replaced with Na^+-containing assay buffer: 100 mM NaCl, 1.8 mM CaCl2, 5 mM glucose, 15 mM HEPES, 5 mM KCl, 1 mM MgCl2 containing serial dilution of each compound or DMSO vehicle, and changes in fluorescence were read immediately using a BMG Labtech POLARstar OMEGA (BMG Labtech GmbH, Offenburg, Germany) plate reader according to the parameters in Table S1. Compounds were tested at n = 3 technical replicates per concentration per plate. BCECF-AM-free cells were treated with matched concentrations of each compound to correct for intrinsic fluorescence. DMSO was present in all wells at a final concentration of 1% v/v. Inhibition of NHE1-mediated pHi recovery was determined by ratiometric calculation of the change in blank-corrected pH-sensitive fluorescence divided by the isobestic fluorescence for each well over time. […] (0% activity) controls present on each plate. IC50 values were determined through fitting of Log-10 transformed data using the “log(inhibitor) versus normalised response–variable slope” non-linear function in GraphPad PRISM v8.0 software package (GraphPad Software, San Diego, CA, USA).

[1] = Cell viability (cytotoxicity) assay; format: cell-based; conditions: human, MDA-MB-231 cells, 48 h treatment
Protocol: On the day of treatment, respective compounds were serially diluted using a semi-logarithmic dilution series from 20 mM stocks in neat DMSO into DMEM-high glucose media (10% v/v FBS) in a separate 96-well plate and under sterile conditions. Thereafter, 10 μL of the diluted compounds at their respective concentrations (n = 4) were added to the cells. […] Vehicle media blanks or drug blanks were also included to correct for inherent colour of the compounds and phenol red-containing media. Following 48 h treatment, 20 μL CellTitre 96® Aqueous One Solution Cell Proliferation Assay (Promega, Madison, USA) was added to each well, plates were incubated for 2 h, and absorbance was measured at 490 nm using a SpectraMax Plus 384-well plate reader (Molecular Devices LLC, San Jose, USA) and Softmax PRO v7.0 software. Blank-corrected data were analysed and graphed using GraphPad PRISM v8.0 software (GraphPad Software, San Diego, CA USA).

[2] = target: T2, urokinase from human kidney cells (human uPA) (Homo sapiens, UniProt P00749); experiment: uPA inhibition assay (fluorescence-based, purified enzyme); format: biochemical; conditions: for IC50: purified enzyme, Z-Gly-Gly-Arg-AMC substrate, number in parentheses after value, read-out: uPA IC50
T2 construct: low molecular weight active human uPA; purchased Sigma-Aldrich U4010; host or cells: human kidney cells

T1 sequence (P19634 whole entry): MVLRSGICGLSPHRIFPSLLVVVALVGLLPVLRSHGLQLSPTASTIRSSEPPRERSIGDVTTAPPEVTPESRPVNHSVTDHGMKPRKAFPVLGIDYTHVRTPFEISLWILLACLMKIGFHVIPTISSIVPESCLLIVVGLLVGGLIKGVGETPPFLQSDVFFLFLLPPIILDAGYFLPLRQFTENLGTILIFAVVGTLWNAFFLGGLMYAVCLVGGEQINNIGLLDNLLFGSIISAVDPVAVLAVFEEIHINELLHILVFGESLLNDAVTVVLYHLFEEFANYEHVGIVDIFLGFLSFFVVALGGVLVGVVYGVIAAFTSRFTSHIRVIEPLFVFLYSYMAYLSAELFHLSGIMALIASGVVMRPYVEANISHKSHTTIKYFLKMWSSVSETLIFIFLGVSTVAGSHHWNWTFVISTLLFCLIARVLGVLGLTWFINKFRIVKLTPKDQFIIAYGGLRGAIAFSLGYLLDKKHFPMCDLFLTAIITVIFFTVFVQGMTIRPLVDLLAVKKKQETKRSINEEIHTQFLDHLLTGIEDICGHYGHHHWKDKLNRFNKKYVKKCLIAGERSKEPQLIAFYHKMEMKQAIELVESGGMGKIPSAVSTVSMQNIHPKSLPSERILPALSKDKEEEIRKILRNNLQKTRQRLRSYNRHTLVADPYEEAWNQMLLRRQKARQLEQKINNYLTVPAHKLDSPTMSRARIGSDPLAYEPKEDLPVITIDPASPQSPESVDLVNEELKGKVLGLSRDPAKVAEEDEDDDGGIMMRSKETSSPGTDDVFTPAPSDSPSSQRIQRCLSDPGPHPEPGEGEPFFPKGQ

SMILES | inhibition at 1 µM (NHE1) | NHE1 Inhibition (%) 10 μM (NHE1; 10 μM) | inhibition at 10 µM (NHE1; 10 μM) | IC50 at 48 h [1] | IC50 [2] | inhibition at 2.5 µM ([2]; @ 2,500 nM, read-out: uPA inhibition at single concentration (printed in uPA IC50 column)) | higher uPA activity than its HMA congener 15 [2] | decrease in uPA activity on opening the 5-alkylamino ring ([2]; within the 6-(2-benzofuranyl) series)
N=C(N)NC(=O)c1nc(Cl)c(N2CCCCCC2)nc1N [HMA, 5-(N,N-hexamethylene)amiloride, reference compound] | 66% | completely blocking activity | 100% | 32.1 µM | 2.21 µM | – | – | –
N=C(N)NC(=O)c1nc(I)c(N)nc1N [compound 3] | 36% | – | 86% | > 100 µM | 1.58 µM | – | – | –
N=C(N)NC(=O)c1nc(-c2cc3ccccc3o2)c(N2CCCCCC2)nc1N [compound 5] | 39% | – | 72% | 19.1 µM | 0.297 ± 0.016 µM | – | – | –
Cc1ccc2oc(-c3nc(C(=O)NC(=N)N)c(N)nc3N)cc2c1 [compound 6] | 0% | – | 71% | 11.7 µM | 1.05 µM | – | – | –
Cc1ccc2oc(-c3nc(C(=O)NC(=N)N)c(N)nc3N3CCCCCC3)cc2c1 [compound 7] | 5% | – | 100% | 8.8 µM | 1.18 µM | – | – | –
N=C(N)NC(=O)c1nc(-c2cc3cc(F)ccc3o2)c(N)nc1N [compound 8] | 0% | – | 75% | 10.6 µM | 0.954 ± 0.072 µM | – | – | –
N=C(N)NC(=O)c1nc(-c2cc3cc(F)ccc3o2)c(N2CCCCCC2)nc1N [compound 9] | 22% | – | 100% | 9.6 µM | 0.187 ± 0.017 µM | – | – | –
N=C(N)NC(=O)c1nc(-c2cc3cc(Cl)ccc3o2)c(N)nc1N [compound 10] | 0% | – | 62% | 4.4 µM | 0.94 ± 0.059 µM | – | – | –
N=C(N)NC(=O)c1nc(-c2cc3cc(Cl)ccc3o2)c(N2CCCCCC2)nc1N [compound 11] | 0% | – | 0% | 26.4 µM | – | 49% | – | –
N=C(N)NC(=O)c1nc(-c2cc3cc(Br)ccc3o2)c(N)nc1N [compound 12] | 0% | – | 97% | 32.1 µM | 5.93 µM | – | – | –
N=C(N)NC(=O)c1nc(-c2cc3cc(Br)ccc3o2)c(N2CCCCCC2)nc1N [compound 13] | 0% | – | 0% | 6.2 µM | 2.56 µM | – | – | –
COc1ccc2oc(-c3nc(C(=O)NC(=N)N)c(N)nc3N)cc2c1 [compound 14] | 4% | – | 36% | > 100 µM | 0.467 ± 0.022 µM | – | > 3 fold | –
COc1ccc2oc(-c3nc(C(=O)NC(=N)N)c(N)nc3N3CCCCCC3)cc2c1 [compound 15] | 34% | – | 91% | 25.1 µM | 1.69 µM | – | – | –
N=C(N)NC(=O)c1nc(-c2cc3cc(F)cc(F)c3o2)c(N)nc1N [compound 16] | 7% | – | 52% | 4.7 µM | 0.609 ± 0.026 µM | – | – | –
N=C(N)NC(=O)c1nc(-c2cc3cc(F)cc(F)c3o2)c(N2CCCCCC2)nc1N [compound 17] | 0% | – | 90% | 8.8 µM | 0.38 ± 0.01 µM | – | – | –
N=C(N)NC(=O)c1nc(-c2cc3cnccc3o2)c(N)nc1N [compound 18] | – | – | – | 26.4 µM | 1.01 µM | – | – | –
N=C(N)NC(=O)c1nc(-c2cc3cnccc3o2)c(N2CCCCCC2)nc1N [compound 19] | 23% | – | 100% | 69.4 µM | 0.164 µM | – | – | –
N=C(N)NC(=O)c1nc(-c2cc3ncccc3o2)c(N)nc1N [compound 20] | 0% | – | 31% | > 100 µM | 0.453 µM | – | – | –
N=C(N)NC(=O)c1nc(-c2cc3ncccc3o2)c(N2CCCCCC2)nc1N [compound 21] | 2% | – | 100% | 43.1 µM | 0.038 µM | – | – | –
N=C(N)NC(=O)c1nc(-c2ccc(C(F)(F)F)cc2)c(N)nc1N [compound 22] | – | – | – | 82.4 µM | 5.1 µM | – | – | –
N=C(N)NC(=O)c1nc(-c2ccc(C(F)(F)F)cc2)c(N2CCCCCC2)nc1N [compound 23] | 77% | – | 100% | 14.7 µM | 6.91 µM | – | – | –
COc1ncc(-c2nc(C(=O)NC(=N)N)c(N)nc2N)cn1 [compound 25] | 0% | – | 18% | > 100 µM | 0.333 ± 0.022 µM | – | – | –
N=C(N)NC(=O)c1nc(-c2cnc(N)nc2)c(N2CCCCCC2)nc1N [compound 27] | 0% | – | 11% | > 100 µM | 0.034 ± 0.005 µM | – | – | –
N=C(N)NC(=O)c1nc(-c2cnc(NCCO)nc2)c(N2CCCCCC2)nc1N [compound 28] | 0% | – | 15% | > 100 µM | 0.067 ± 0.003 µM | – | – | –
N=C(N)NC(=O)c1nc(-c2cc3ccccc3o2)c(N2CCCC2)nc1N [compound 31] | 18% | – | 85% | 22.7 µM | 0.546 ± 0.024 µM | – | – | –
N=C(N)NC(=O)c1nc(-c2cc3ccccc3o2)c(N2CCCCC2)nc1N [compound 32] | 69% | – | 100% | 16.2 µM | 1.88 µM | – | – | –
CCN(c1nc(N)c(C(=O)NC(=N)N)nc1-c1cc2ccccc2o1)C(C)C [compound 33] | 8% | – | 41% | 17.2 µM | 1.6 µM | – | – | > 5 fold
N=C(N)NC(=O)c1nc(-c2cc3ccccc3o2)c(NC2CCCC2)nc1N [compound 34] | 0% | – | 0% | 6.2 µM | 5.87 µM | – | – | –
N=C(N)NC(=O)c1nc(-c2cc3ccccc3o2)c(NC2CCCCCC2)nc1N [compound 35] | 0% | – | 0% | 26.2 µM | 30.2 µM | – | – | –
